In US7700088B2, “Interleukin-9 mutein peptides” (Genaera Corporation, priority 1995, dated 2010):
Entries after “also recorded” stand apart in the source; their conditions may differ.

Tests used:
[1] = system: IL-9 mediated MO7e proliferation; assay: Inhibition of IL-9 mediated MO7e proliferation (acid phosphatase cell proliferation assay); format: cell-based, human; conditions: for inhibition of cellular growth induced by IL-9: tyrophostins incubated with MO7e cells, compared with control (no treatment); for inhibition of cellular growth induced by IL-9 (antagonism of IL-9): peptides incubated with MO7e cells, compared with control (no peptide)
Method: Cell lines were used to assess the function of peptides, aminosterols, tyrophostins, rhIL-9, rmIL-9, and recombinant mutant forms of these proteins as well as all other compounds that block IL-9 function. A proliferative response was measured and compared to each of the other cytokines, variant or mutant forms of Il-9, or IL-9 antagonists. In addition, compounds were tested for their ability to antagonize the baseline proliferative response. Once a baseline proliferative response was established for a cytokine a statistically significant loss of response in assays repeated three times in triplicate was considered evidence for antagonism. A true antagonistic response was differentiated from cellular toxicity by direct observation, trypan blue staining (a technique well known to one of normal skill in the art), and loss of acid phosphatase activity. Specificity was assessed for the antagonist by evaluating whether the activity was substantially expressed against other proliferative agents such as steel factor, interleukin 3, or interleukin 4.
The MO7e line is a human megakaryoblastic cell line, cultured in RPMI 1640 (GIBCO/BRL, Gaithersburg, Md.), 20% Fetal Bovine Serum (Hyclone) and 10 ng/ml IL-3 (R&D Systems, Minneapolis, Minn.). The MJ line is a cytokine independent human lymphoblastoid cell line grown in RPMI 1640 (GIBCO/BRL) K562 is a human erthroleukemia cell line, cultured in RPMI 1640 (GIBCO/BRL) and 10% fetal bovine serum (Hyclone). C8166-45 is a IL-9 receptor bearing line, cultured in RPMI 1640 GIBCO/BRL) and 10% Fetal bovine serum (Hyclone). All the cell lines respond to cytokines including IL-9. The cell lines are fed and reseeded at 2×10^5 cells/ml every 72 hours.
The cells were centrifuged for 10 minutes at 2000 rpm and resuspended in RPMI 1640 with 0.5% Bovine Serum Albumin (GIBCO/BRL, Gaithersburg, Md.) and insulin-transferrin-selenium (ITS) cofactors (GIBCO/BRL, Gaithersburg, Md.). Cells were counted using a hemocytometer and diluted to a concentration of 1×10^5 cells/ml and plated in a 96-well microtiter plate. Each well contained 0.15 or 0.2 ml giving a final concentration of 2×10^4 cells per well.
MO7e cells were stimulated with 50 ng/ml Stem Cell Factor (SCF) (R&D Systems, Minneapolis, Minn.) alone, 50 ng/ml SCF plus 50 ng/ml IL-3 (R&D Systems, Minneapolis, Minn.), or 50 ng/ml SCF plus 50 ng/ml IL-9. A control was included which contains cells and basal media only. Serial dilutions of test compounds (i.e., recombinant IL-9 proteins, peptides, small molecules) were added to each test condition in triplicate. The MJ cell line was used as an independent control for nonspecific cytotoxicity. Cultures were incubated for 72-96 hours at 37° C. in 5% CO2.
Cell proliferation was assayed using the Abacus Cell Proliferation Kit (Clontech, Palo Alto, Calif.) which determines the amount of intracellular acid phosphatase present as an indication of cell number. The substrate p-nitrophenyl phosphate (pNPP) was converted by acid phosphatase to p-nitrophenol which was measured as an indicator of enzyme concentration. pNPP was added to each well and incubated at 37° C. for one hour. 1N sodium hydroxide was then added to stop the enzymatic reaction, and the amount of p-nitrophenol was quantified using a Dynatech 2000 plate reader (Dynatech Laboratories, Chantilly, Va.) at 410 nm wavelength. Standard curves that compare cell number with optical absorbance were used to determine the linear range of the assay. Assay results were only used when absorbance measurements are within the linear range of the assay.

Soluble IL-9 receptor = molecular target: T1, Soluble IL-9 receptor (Homo sapiens, UniProt Q01113); assay: Binding of recombinant IL-9 forms to soluble IL-9 receptor (anti-FLAG immunoprecipitation, Western blot); conditions: 0.5 micrograms soluble receptor (amino acids 44 to 270), PBS, room temperature, 30 minutes
T1 construct: Soluble IL-9 receptor including amino acids 44 to 270 (R&D Systems); purchased R&D Systems
T1 sequence (Q01113 44-270): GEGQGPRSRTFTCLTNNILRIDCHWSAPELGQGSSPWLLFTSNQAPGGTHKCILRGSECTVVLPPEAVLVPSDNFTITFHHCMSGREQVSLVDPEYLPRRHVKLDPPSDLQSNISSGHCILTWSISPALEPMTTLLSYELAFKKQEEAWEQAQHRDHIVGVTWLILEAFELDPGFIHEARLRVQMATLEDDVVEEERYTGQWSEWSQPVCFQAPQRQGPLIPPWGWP
Method: Soluble IL-9 receptor including amino acids 44 to 270 (R&D Systems) was incubated with different forms of human recombinant IL-9. Varying amounts of FlagMet117 and FlagThr117 (described in Example 7) were incubated in PBS at room temperature for 30 minutes with 0.5 micrograms of soluble receptor. EBC buffer (50 mM Tris pH 7.5; 0.1 M NaCl; 0.5% NP40) was added (300 microliters) was added along with 1 microgram of anti-FLAG monoclonal antibody (IBI) and incubated for 1 hour on ice. Forty microliters of protein A sepharose solution was added to each sample and mixed for 1 hour at 4° C. Samples were centrifuged for 1 minute 11,000×G and pellets were washed 4 times with 500 microliters of EBC. Pellets were dissolved in 26 microliters of 2×SDS buffer, boiled for 4 minutes, and electrophoresed through an 18% SDS polyacrylamide gel. Western blots were performed as described in Example 15 except the blots were probed with an anti-IL-9 receptor antibody (R&D Systems).

Row | Compound | inhibition of cellular growth induced by IL-9 (antagonism of IL-9) [1] | further results
1 | N#C/C(=C\c1ccc(O)c(O)c1)C(=O)NCCCc1ccccc1 [Tyrophostin B46, reference compound] | – | inhibition of cellular growth induced by IL-9 [1]: greatest inhibition
2 | N#C/C(=C\c1ccc(O)c(O)c1)C(=O)NCCCCc1ccccc1 [Tyrophostin B56, reference compound] | – | inhibition of cellular growth induced by IL-9 [1]: greatest inhibition
3 | IL-9 FlagMet117: purified recombinant human FLAG IL-9 fusion protein with methionine at position 117 | – | binding to soluble IL-9 receptor (Soluble IL-9 receptor): bound to the soluble receptor
4 | KP-16: antagonistic peptide derived from IL-9 exon 4, IL-9 residues 43-60, SEQ. ID NO: 13 (SDNATRPAFSERLSQMTN) | considerable inhibitory activity; also recorded: act as IL-9 antagonists | –
5 | KP-20: antagonistic peptide derived from IL-9 exon 4, IL-9 residues 71-90, SEQ. ID NO: 14 (FSRVKKSVEVLKNNKAPY) | considerable inhibitory activity; also recorded: act as IL-9 antagonists | –
6 | KP-23: peptide derived from IL-9 exon 5, SEQ ID NO: 15, spanning the codon 117 polymorphism (EQPANQTTAGNALTFLKS) | antagonistic properties | –
7 | KP-24: peptide derived from IL-9 exon 5, SEQ ID NO: 16, spanning the codon 117 polymorphism (TAGNALTFLKSLLEIFQK; Residues 99-116 of Mature hIL-9 Receptor) | antagonistic properties | –
